Assay results from PMC3894848 (Journal of medicinal chemistry, 2013).

Legend:
BRD4 BrD1 = BRD4 BrD1 (Homo sapiens, UniProt O60885); experiment: Fluorescence anisotropy competition binding assay; settings: for binding activity toward BRD4 BrD1 (in words): fluorescence anisotropy/polarization assay; for Lipophilic Ligand Efficiency: against BRD4-BrD1, LLE = pKi – ClogP
BRD4 BrD2 = BRD4 BrD2 (Homo sapiens, UniProt O60885); experiment: Fluorescence anisotropy competition binding assay, BRD4 BrD2

In the case of `Cc1cc(/N=N/c2cc(S(=O)(=O)O)c(C)cc2C)c(N)cc1O` [Compound 1, (E)-5-((2-amino-4-hydroxy-5-methylphenyl)diazenyl)-2,4-dimethylbenzenesulfonic acid], the “binding activity toward BRD4 BrD1 (in words)” value (BRD4 BrD1) is reported as “modest activity”.

In the case of `Cc1cc(C)c(S(=O)(=O)O)cc1/N=N/c1cc(C)c(O)c(C)c1` [Compound 2, (E)-5-(3,5-dimethyl-4-hydroxyphenylazo)-2,4-dimethylbenzenesulfonic acid], the “improvement in binding affinity to the BRD4 BrDs over MS120 (1)” value (BRD4 BrD1; vs MS120 (1), both BRD4 BrDs) is reported as 2–3 fold.

For `Cc1cc(/N=N/c2cccc(S(=O)(=O)Nc3ccccn3)c2)cc(C)c1O` [Compound 3, (E)-3-((4-hydroxy-3,5-dimethylphenyl)diazenyl)-N-(pyridin-2-yl)benzenesulfonamide], the “binding activity toward BRD4 BrD1 (in words)” value (BRD4 BrD1) was “retained the affinity of 2”.

`Cc1cc(/N=N/c2ccc(S(=O)(=O)Nc3ccccn3)cc2)cc(C)c1O` [Compound 4, (E)-4-((4-hydroxy-3,5-dimethylphenyl)diazenyl)-N-(pyridin-2-yl)benzenesulfonamide] was tested, and the “Lipophilic Ligand Efficiency” value (BRD4 BrD1) was 0.78 and the “improvement of affinity for the BRD4 BrD1 vs compound 3” value (BRD4 BrD1; vs 3) was “over 6 fold”.

`Cc1cc(/N=N/c2ccc(S(=O)(=O)NCc3ccc(C(F)(F)F)cc3)cc2)cc(C)c1O` [Compound 5, (E)-4-((4-hydroxy-3,5-dimethylphenyl)diazenyl)-N-(4-(trifluoromethyl)benzyl)benzenesul-fonamide] was tested, and the “binding activity toward BRD4 BrD1 (in words)” value (BRD4 BrD1) was “deteriorated drastically”.

With `Cc1cc(/N=N/c2ccc(S(=O)(=O)N(C)c3ccccn3)cc2)cc(C)c1O` [Compound 6, (E)-4-((4-hydroxy-3,5-dimethylphenyl)diazenyl)-N-methyl-N-(pyridin-2-yl)benzenesul-fonamide] the “loss in activity/affinity toward BRD4 BrD1 vs MS435” value (BRD4 BrD1; vs MS435) was 9 fold.

In the case of `Cc1cc(/N=N/c2ccc(S(=O)(=O)Nc3ccc(C(=O)O)cn3)cc2)cc(C)c1O` [Compound 9, (E)-6-(4-((4-hydroxy-3,5-dimethylphenyl)diazenyl)phenylsulfonamido)nicotinic acid], the “better affinity/potency toward BRD4 BrD1 than MS435” value (BRD4 BrD1; vs MS435) is reported as “about 3 fold”.

For `COc1ccc(NS(=O)(=O)c2ccc(/N=N/c3cc(C)c(O)c(C)c3)cc2)nc1` [Compound 12, (E)-4-((4-hydroxy-3,5-dimethylphenyl)diazenyl)-N-(5-methoxypyridin-2-yl)benzenesulfon-amide], the “increase in binding affinity for the BRD4 BrD2 by nitrogen in the C ring” value (BRD4 BrD2; 12 vs. 13) was 3 fold, the “improvement in binding affinity to the BRD4 BrD1 by nitrogen in the C ring” value (BRD4 BrD1; 12 vs. 13) was 13 fold and the “selectivity for the BrD1 over the BrD2 of BRD4” value (BRD4 BrD1; ratio of binding affinities) was 4 fold.

With `Cc1cc(/N=N/c2ccc(S(=O)(=O)Nc3ccccn3)cc2)c(N)c(C)c1O` [Compound 28, (E)-4-((2-amino-4-hydroxy-3,5-dimethylphenyl)diazenyl)N-(pyridin-2-yl)benzenesulfon-amide] the “Lipophilic Ligand Efficiency” value (BRD4 BrD1) was 2.77 and the “reduction in binding affinity to the BRD4 BrD1 vs MS436” value (“reduction … to the BRD4 BrD1 vs MS436” for short) (BRD4 BrD1) was “about 2 fold”.

`COc1cc(/N=N/c2ccc(S(=O)(=O)Nc3ccccn3)cc2)c(N)cc1O` [Compound 30, (E)-4-((2-amino-4-hydroxy-5-methoxyphenyl)diazenyl)-N-(pyridin-2-yl)benzenesulfon-amide] was tested, and the “reduction in binding affinity to the BRD4 BrD2 vs MS436” value (BRD4 BrD2) was 15 fold and the “reduction … to the BRD4 BrD1 vs MS436” value (BRD4 BrD1) was 15 fold.

With `Cc1cc(/N=N/c2ccc(S(=O)(=O)Nc3ccccn3)cc2)nc(C)c1O` [Compound 31, (E)-4-((5-hydroxy-4,6-dimethylpyridin-2-yl)diazenyl)-N-(pyridin-2-yl)benzenesulfonamide] the “loss in activity/affinity toward BRD4 BrD1 vs MS435” value (BRD4 BrD1; vs MS435) was 3 fold.

For `Cc1nc(/N=N/c2ccc(S(=O)(=O)Nc3ccccn3)cc2)c(C)c(C)c1O` [Compound 32, (E)-4-((5-hydroxy-3,4,6-trimethylpyridin-2-yl)diazenyl)-N-(pyridin-2-yl)benzenesulfon-amide], the “loss in activity/affinity toward BRD4 BrD1 vs MS435” value (BRD4 BrD1; vs MS435) was 3 fold.

In the case of `Cc1cc(/N=N/c2ccc(S(=O)(=O)NCc3ccc(C(F)(F)F)cc3)cc2)ccc1O` [Compound 35, (E)-4-((4-hydroxy-3-methylphenyl)diazenyl)-N-(4-(trifluoromethyl)benzyl)benzenesulfon-amide], the “binding activity toward BRD4 BrD1 (in words)” value (BRD4 BrD1) is reported as “deteriorated drastically”.

With `Cc1cc(/N=N/c2ccc(S(=O)(=O)NCc3ccc(C(F)(F)F)cc3)cc2)c(N)cc1O` [Compound 36, (E)-4-((2-amino-4-hydroxy-5-methylphenyl)diazenyl)-N-(4-(trifluoromethyl)benzyl)benzene sulfonamide] the “binding activity toward BRD4 BrD1 (in words)” value (BRD4 BrD1) was “deteriorated drastically”.

`COc1c(C)cc(/N=N/c2ccc(S(=O)(=O)Nc3ccccn3)cc2)cc1C` [Compound 37, (E)-4-((4-methoxy-3,5-dimethylphenyl)diazenyl)-N-(pyridin-2-yl)benzenesulfonamide] was tested, and the “binding activity toward BRD4 BrD1 (in words)” value (BRD4 BrD1) was “completely lost binding activity”.

For `CC(=O)Nc1c(C)cc(/N=N/c2ccc(S(=O)(=O)Nc3ccccn3)cc2)cc1C` [Compound 38, (E)-N-(2,6-dimethyl-4-((4-(N-(pyridin-2-yl)sulfamoyl)phenyl)diazenyl)phenyl)acetamide], the “binding activity toward BRD4 BrD1 (in words)” value (BRD4 BrD1) was “completely lost binding activity”.

`CC(C)c1cc(/N=N/c2ccc(S(=O)(=O)Nc3ccccn3)cc2)ccc1O` [Compound 39, (E)-4-((4-hydroxy-3-isopropylphenyl)diazenyl)-N-(pyridin-2-yl)benzenesulfonamide] was tested, and the “loss in activity/affinity toward BRD4 BrD1 vs MS435” value (BRD4 BrD1; vs MS435) was “about 10 fold”.

In the case of `CC(C)(C)c1cc(/N=N/c2ccc(S(=O)(=O)Nc3ccccn3)cc2)ccc1O` [Compound 40, (E)-4-((3-(tert-butyl)-4-hydroxyphenyl)diazenyl)-N-(pyridin-2-yl)benzenesulfonamide], the “loss in activity/affinity toward BRD4 BrD1 vs MS435” value (BRD4 BrD1; vs MS435) is reported as “about 10 fold”.

`CC(C)c1cc(/N=N/c2ccc(S(=O)(=O)Nc3ccccn3)cc2)cc(C(C)C)c1O` [Compound 41, (E)-4-((4-hydroxy-3,5-diisopropylphenyl)diazenyl)-N-(pyridin-2-yl)benzenesulfonamide] was tested, and the “binding activity toward BRD4 BrD1 (in words)” value (BRD4 BrD1) was “almost completely lost their activities”.

With `CC(C)(C)c1cc(/N=N/c2ccc(S(=O)(=O)Nc3ccccn3)cc2)cc(C(C)(C)C)c1O` [Compound 42, (E)-4-((3,5-di-tert-butyl-4-hydroxyphenyl)diazenyl)-N-(pyridin-2-yl)benzenesulfonamide] the “binding activity toward BRD4 BrD1 (in words)” value (BRD4 BrD1) was “almost completely lost their activities”.

`Cc1cc(/N=N/c2cccc(S(=O)(=O)Nc3ccccn3)c2)c(N)cc1O` [Compound 51, (E)-3-((2-amino-4-hydroxy-5-methylphenyl)diazenyl)-N-(pyridin-2-yl)benzenesulfonamide] was tested, and the “reduction in binding affinity to the BRD4 BrD2 vs MS436” value (BRD4 BrD2) was 3 fold and the “reduction … to the BRD4 BrD1 vs MS436” value (BRD4 BrD1) was 10 fold.
